In ChEMBL document CHEMBL1134572, “Specific inhibition of a family 1A dihydroorotate dehydrogenase by benzoate pyrimidine analogues” (J Med Chem, 2001) one finds Activity, Ki and Kd data, which are given here for six compounds.

SMILES strings stand for the structures.

One test relates to Lactococcus lactis. In words: Inhibitory activity against family of dihydroorotate dehydrogenase 1A (1A DHOD) from Lactococcus lactis at 1 uMolar concentration. On the set-up: scale not given: the % may be the effect or the level left. The conditions noted are these: 1 uM.
Test [1] can be described thus: Inhibition constant against 1A […] dehydrogenase (1A DHOD) from Lactococcus lactis.
Test [2] is described as follows: Dissociation constant against 1A […] dehydrogenase (1A DHOD) from Lactococcus lactis at 25 degrees C pH 8.0.
The nature of test [3]: Dissociation constant against dihydroorotate dehydrogenase 1A (1A DHOD) from Lactococcus lactis at 25 degrees C pH 8.0.
Test [4] can be described thus: Inhibition constant against dihydroorotate dehydrogenase 1A (1A DHOD) from Lactococcus lactis.

Compound `O=C(O)c1ccc(O)cc1` returned an Activity in the test with Lactococcus lactis of 92%.
Same read-out and setting: as for `O=C(O)c1ccc(O)cc1O`, the figure is 91%; as for `O=C(O)c1ccc(O)nc1`, 94%.
A word on the Ki: it is a measure of affinity in units of concentration, obtained from inhibition or displacement. For orientation: Kd means a measure of binding affinity in units of concentration. In test [1], `O=C(O)c1ccc(O)c(O)c1` [PROTOCATECHUIC ACID] returned a Ki of 12 µM. The compound further registered an Activity in the test with Lactococcus lactis of 7%. The compound also registered a Kd in test [2] of 19 µM.
For the compound `O=C(O)c1cc(O)cc(O)c1` [3,5-DIHYDROXYBENZOIC ACID], in the test on Lactococcus lactis, the Activity was found to be 6%. In addition, the Kd in test [3] stood at 18.4 µM. This compound displayed a Ki in test [4] of 21 µM.
In turn, `O=C(O)c1ccccc1O` showed an Activity with Lactococcus lactis of 81%.
